Experimental data from article PMC6104039 (Nature Communications, 2018).
Values joined by “and” are separate entries in the source; they are usually repeats but may differ in a detail not shown here. Identical values can stand only once.

What was measured:
SkM [1] = assay: Targeted quantification of sphingosine and dihydrosphingosine in SkM; format: in vivo, mice; details: 5 mg/kg daily
Source text: (§1) Male C57BL6/J mice were obtained from the Animal Resources Centre in Perth (WA, Australia). […] Treatment was commenced at the same time as mice were randomised to dietary groups. The experiments were approved by the UNSW animal care and ethics committee (ACEC 15/48B), and followed guidelines issued by the National Health and Medical Research Council of Australia.

SkM [2] = assay: Lipidomic profiling of skeletal muscle (quadriceps) of mice on chow or HFD; format: in vivo
Source text: as §1
Lipids were extracted from frozen tissue samples or cells using a two-phase procedure with methyl-tert-butyl ether (MTBE)/methanol/water (10:3:2.5, v/v/v)[67]. Frozen tissue samples (~20 mg) were homogenized in 0.2 mL methanol containing 0.01% butylated hydroxytoluene (BHT), using a Precellys 24 homogenizer and Cryolys cooling unit (Bertin Technologies) with CK14 (1.4-mm ceramic) beads. The homogenates were spiked with an internal standard mixture comprising 5 nmole 19:0/19:0 phosphatidylcholine and 2 nmole each of 17:0/17:0 phosphatidylethanolamine, 17:0/17:0 phosphatidylserine, 17:0/17:0 d5-diacylglycerol, 17:0/17:0 phosphatidylglycerol, 14:0/14:0/14:0/14:0 cardiolipin, 18:1/12:0 SM, 18:1/17:0 ceramide, 18:1/12:0 glucosylceramide, 18:1/12:0 lactosylceramide, 18:1/12:0 sulfatide (all from Avanti Polar Lipids, USA), and 17:0/17:0/17:0 TAG (Cayman Chemical, USA), then transferred to 10 mL screw cap glass tubes. The homogenization tubes containing beads were then washed with another 0.3 mL methanol, and this wash was combined with the first methanol extract, after which 1.7 mL MTBE was added and the samples were sonicated in an ice-cold sonicating water bath (Thermoline Scientific, Australia) for 30 min. Phase separation was induced by addition of 417 µL of mass spectrometry-grade water followed by vortexing and centrifugation at 1000 × g for 10 min. The upper organic phase was collected into 5 mL glass tubes. The lower phase was re-extracted by adding 1 mL MTBE, 300 μL methanol, and 250 μL water. The organic phases were combined in the 5 mL glass tubes and dried under vacuum in a Savant SC210 SpeedVac (Thermo Scientific), then reconstituted in 500 μL methanol and stored at −20 °C until analysis.
Lipidomic profiling was performed on a QExactive Plus mass spectrometer with heated electrospray ionization (HESI) probe and a Dionex UltiMate 2000 LC pump (Thermo Fisher Scientific). Extracts were resolved on a 2.1 × 100 mm Waters Acquity C18 UPLC column (1.7 µm […]), using a binary gradient in which mobile phase A consisted of acetonitrile:water (60:40), 10 mM ammonium formate, 0.1% formic acid; and mobile phase B was isopropanol:acetonitrile (90:10), 10 mM ammonium formate, 0.1% formic acid[68]. The flow rate was 260 µL/min and column oven 55 °C. Data was acquired in full scan/data-dependent MS^2 mode (full scan resolution 70,000 FWHM, scan range 400–1200 m/z). The ten most abundant ions in each cycle were subjected to MS^2 using an isolation window of 1.4 m/z, collision energy 30 eV, resolution 17,500, maximum integration time 110 ms and dynamic exclusion window 10 s. An exclusion list of background ions was used based on a solvent blank. LipidSearch v4.1.30 software (ThermoFisher Scientific) was used for chromatogram alignment, peak identification and integration. Each lipid peak was manually verified for column elution time and characteristic fragment ions. Data were then exported to an Excel spreadsheet for normalisation of each lipid to its class-specific internal standard, and lipid concentrations were calculated relative to the internal standard.
Data were log transformed, then subjected to two-tailed t-tests adjusted for multiple comparisons using GraphPad PRISM (Benjamini, Krieger and Yekutieli correction, Q = 1%).

[3] = 5 mg/kg daily, 4–6 weeks, HFD group

## C[C@@](N)(CO)CCc1ccc(OCc2ccc(Cl)c(Cl)c2)cc1 [P053, (S)-2-amino-4-(4-(3,4-dichlorobenzyloxy)phenyl)-2-methylbutan-1-ol]
SkM [1]
  dihydrosphingosine levels in SkM: not notably affected
SkM [1]; HFD
  increase of sphingosine levels in SkM: 22%
SkM [1]; chow diet, not significant
  increase of sphingosine levels in SkM: 11%
SkM [2]; 5 mg/kg daily, 4–6 weeks
  HexCer content of SkM: not significantly affected
  levels of common phospholipids in SkM: did not affect
  total ceramide content of SkM: reduced total ceramide content
SkM [2]; [3]
  42:2 SM in SkM: significantly increased
  very long chain ceramides (C22:0, C24:0 and C24:1) in SkM: significantly increased
SkM [2]; 5 mg/kg daily, 4–6 weeks, both diets, not statistically significant
  mean levels of 36:1 SM in SkM, lower than vehicle: 13%
SkM [2]; Chow + P053, individual mice
  Ceramide 18:1/16:0 content of skeletal muscle: 3.10 and 1.77 (2×) and 2.74 and 1.05 and 2.59 and 2.04 and 2.73 and 4.80 and 1.58 and 1.47 and 1.10 and 1.69 and 1.86 and 1.78 and 2.17 and 1.48 (2×)
  Ceramide 18:1/18:0 content of skeletal muscle: 20.71 and 17.58 and 23.00 and 14.06 and 16.77 and 18.40 (2×) and 20.26 and 15.08 and 13.86 and 23.04 and 23.06 and 23.01 and 18.78 and 15.44 and 14.24 and 19.21 and 15.87
  Ceramide 18:1/20:0 content of skeletal muscle: 0.50 and 0.38 (2×) and 0.51 and 0.33 and 0.44 and 0.57 and 0.41 and 0.18 (2×) and 0.21 and 0.17 (2×) and 0.22 and 0.15 (2×) and 0.13 and 0.20
  Ceramide 18:1/22:0 content of skeletal muscle: 1.58 and 1.18 and 1.27 and 1.31 and 1.33 and 1.24 and 2.02 and 1.70 and 0.82 and 0.97 and 0.93 and 1.37 and 0.85 and 1.53 and 1.04 (2×) and 0.62 and 0.77
  Ceramide 18:1/24:0 content of skeletal muscle: 2.05 and 1.75 and 2.39 and 1.84 (2×) and 2.22 and 3.08 and 3.05 and 1.41 and 1.81 and 2.08 and 2.47 and 0.10 and 2.48 and 0.14 and 1.18 and 1.87 and 1.61
  Ceramide 18:1/24:1 content of skeletal muscle: 5.19 and 4.17 and 5.42 and 4.06 and 4.86 and 4.12 and 6.25 and 6.63 and 2.73 and 3.16 and 3.08 and 4.65 and 3.22 and 4.69 and 3.70 and 2.46 and 3.14 and 2.75
  Ceramide 18:2/18:0 content of skeletal muscle: 1.63 and 1.36 and 1.77 and 0.81 and 1.04 and 1.34 and 1.47 (2×) and 1.60 and 2.11 and 1.87 and 1.91 and 1.85 and 1.31 and 1.49 and 1.75 and 1.71 and 1.50
  SM 34:1 content of skeletal muscle: 155.00 and 75.29 and 64.44 and 51.84 and 157.48 and 87.87 and 37.17 and 61.63 and 56.39 and 26.64 and 21.61 and 27.95 and 26.10 and 29.76 and 25.67 and 36.05 and 29.79 and 28.45
  SM 36:1 content of skeletal muscle: 408.35 and 391.75 and 244.36 and 209.60 and 257.92 and 303.73 and 198.39 and 281.99 and 211.03 and 160.27 and 169.50 and 130.04 and 157.61 and 130.34 and 143.84 and 173.19 and 158.59 and 154.00
  SM 36:2 content of skeletal muscle: 5.68 and 10.86 and 10.80 and 2.69 and 6.07 and 9.49 and 5.32 and 8.00 and 6.39 and 4.78 and 4.58 and 3.87 and 4.48 and 3.64 and 4.59 and 6.14 and 4.52 and 4.32
  SM 38:1 content of skeletal muscle: 13.22 and 12.48 and 5.72 and 6.13 and 5.91 and 5.41 and 17.63 and 9.33 and 1.53 and 1.84 and 1.68 and 1.39 and 1.34 and 1.51 and 1.41 and 1.37 and 2.56 and 1.65
  SM 40:1 content of skeletal muscle: 28.35 and 29.55 and 12.61 and 11.97 and 14.98 and 15.26 and 24.07 and 17.95 and 17.87 and 21.14 and 17.97 and 25.28 and 16.09 and 25.29 and 21.99 and 14.69 and 26.69 and 18.42
  SM 40:2 content of skeletal muscle: 2.18 and 3.25 and 1.19 and 1.06 and 1.18 and 0.98 and 4.74 and 3.00 and 1.89 and 2.04 and 2.38 and 2.68 and 1.85 and 2.58 and 2.52 and 1.52 and 2.57 and 1.93
  SM 42:1 content of skeletal muscle: 26.96 and 32.88 and 11.84 and 14.58 and 16.55 and 13.22 and 32.58 and 20.65 and 17.62 and 18.82 and 16.13 and 27.77 and 16.56 and 31.99 and 21.25 and 13.55 and 28.43 and 16.15
  SM 42:2 content of skeletal muscle: 78.98 and 85.87 and 38.45 and 39.28 and 45.06 and 42.02 and 67.24 and 61.76 and 56.89 and 58.53 and 52.21 and 80.69 and 50.18 and 74.84 and 63.29 and 51.49 and 78.04 and 54.99
  SM 42:3 content of skeletal muscle: 11.26 and 12.44 and 7.12 and 5.50 and 7.16 and 6.69 and 11.58 and 9.28 and 9.04 and 9.58 and 8.81 and 14.49 and 7.86 and 11.12 and 9.61 and 8.30 and 13.11 and 8.65
SkM [2]; HFD + P053
  total SkM TAG content, lower than HFD vehicle group: 60%
SkM [2]; HFD + P053, individual mice
  Ceramide 18:1/16:0 content of skeletal muscle: 1.10 and 2.17 and 1.83 and 1.12 (2×) and 2.90 and 1.46 and 0.87 (2×) and 1.73 and 3.22 and 1.34 and 1.89 and 1.27 and 1.41 and 1.14 and 1.04 and 0.99 and 1.01
  Ceramide 18:1/18:0 content of skeletal muscle: 14.13 and 13.78 and 15.90 and 15.58 and 21.96 and 19.36 and 13.96 and 15.88 and 24.31 and 19.32 and 17.61 and 21.70 and 17.37 and 21.41 and 15.56 and 12.14 and 18.07 and 11.49 and 13.22
  Ceramide 18:1/20:0 content of skeletal muscle: 0.45 (2×) and 0.54 and 0.57 and 0.65 and 0.48 and 0.42 and 0.40 and 0.77 and 0.10 (2×) and 0.08 (2×) and 0.06 (2×) and 0.07 (2×) and 0.05 and 0.09
  Ceramide 18:1/22:0 content of skeletal muscle: 1.69 and 1.43 and 1.68 and 1.85 and 2.17 and 1.53 and 1.50 and 1.46 and 2.26 and 1.14 and 1.16 and 1.47 and 1.36 and 1.00 and 1.18 and 0.98 and 1.30 and 1.04 and 1.72
  Ceramide 18:1/24:0 content of skeletal muscle: 1.53 (2×) and 1.50 and 1.85 and 1.78 and 2.27 and 1.57 (2×) and 1.81 and 2.48 and 1.41 and 1.31 and 1.65 and 1.24 and 1.83 and 1.21 and 1.67 and 1.20 and 1.73
  Ceramide 18:1/24:1 content of skeletal muscle: 4.07 and 3.37 and 3.91 and 3.88 and 4.88 and 3.55 (2×) and 3.81 and 5.60 and 2.28 and 2.44 and 3.08 and 2.82 and 2.33 and 2.75 and 2.49 and 2.86 and 2.35 and 3.30
